# From patent US20080274522A1, “METHOD FOR THE PRODUCTION OF 2-BUTANONE” (priority 2007, published 2008)
# What was measured:
# [1] = system: Erwinia amino alcohol O-phosphate lyase; experiment: Aminopropanol O-phosphate lyase assay (MBTH, OD670); type: biochemical, Erwinia carotovora subsp. atroseptica; settings: 10 mM substrate, 37° C.
# Method: The pBAD.KA-AT plasmid was transformed into the E. coli TOP10 strain. A 50 mL culture of TOP10/pBAD.KA-AT strain was grown to mid log phase (OD600=0.6) in LB, 100 μg/mL ampicillin media at 37° C. with shaking at 250 rpm. The culture was induced by addition of L-arabinose to a final concentration of 0.1% (w/v), and it was further incubated at 37° C. for 5 h before harvesting by centrifugation. The cell pellet was resuspended in ice cold 50 mM Tris-HCl, pH 8.0, and disrupted by sonication on ice with a Fischer Sonic Model 300 Dismembrator (Fischer, Pittsburgh, Pa.) at 50% power, repeating four cycles of 30 seconds sonication with 60 seconds rest in-between each cycle. Each sonicated sample was centrifuged (15,000×g, 4 min, 4° C.). Clarified cell free extracts were analyzed for protein expression level and amino alcohol O-phosphate lyase activity.
# The aminopropanol O-phosphate lyase assay was performed as described by Jones et al. (1973, Biochem. J. 134:167-182) and G. Gori et al. (1995, Chromatographia 40:336) The formation of propionaldehyde from aminopropanol O-phosphate was assayed calorimetrically with MBTH, which allows the detection of aldehyde formation. The reaction was performed as follows. In a 1 mL reaction, 100 μg cell free extract of E. coli TOP10/pBAD.KA-AT was added to 10 mM DL-1-amino-2-propanol O-phosphate in 100 mM Tris-HCl, pH 7.8, with 0.1 mM PLP. The reaction was incubated at 37° C. for 10 min and 30 min, with an aliquot of 100 μL reaction mixture removed at each time point and mixed with 100 μL of 6 mg/mL MBTH in 375 mM glycine-HCl, pH 2.7. This mixture was incubated at 100° C. for 3 min, cooled on ice for 15-30 s, and 1 mL of 3.3 mg/mL FeCl3.6H2O (in 10 mM HCl) was added, followed by incubation for 30 min at room temperature. The absorbance of the reaction mixture which contains the aldehyde-MBTH adduct, was measured at 670 nm. In the presence of the aminopropanol phosphate substrate, PLP and cell free extract, formation of aldehyde was detected, as indicated by an Abs670 that was higher than the control background of up to 0.3. In the absence of either the substrate or the cell free extract, no aldehyde formation was detected. In the absence of added PLP, somewhat less amount aldehyde was detected, presumably due to the presence of PLP in the cell free extract.
# [2] = system: Lactobacillus plantarum PN0512; experiment: Growth of L. plantarum PN0512 in the presence of butanols at different temperatures (OD600); type: cell-based; set-up: key to Growth of L. plantarum PN0512 in the presence of 1-butanol / Growth of L. plantarum PN0512 in the presence of isobutanol / Growth of L. plantarum PN0512 in the presence of 2-butanol: +: growth observed as an increase in OD600.; −: no growth observed, i.e. no change in OD600
# Method: Tolerance levels of bacterial strain Lactobacillus plantarum PN0512 (ATCC # PTA-7727) were determined at 25° C., 30° C. and 37° C. as follows. The strain was cultured in S30L medium (i.e., 10 mM ammonium sulfate, 5 mM potassium phosphate buffer, pH 7.0, 50 mM MOPS, pH 7.0, 2 mM MgCl2, 0.7 mM CaCl2, 50 μM MnCl2, 1 μM FeCl3, 1 μM ZnCl2, 1.72 μM CuCl2, 2.53 μM COCl2, 2.42 μM Na2MoO4, 2 μM thiamine hydrochloride, 10 mM glucose, and 0.2% yeast extract). An overnight culture in the absence of any test compound was started in 15 mL of the S30L medium in a 150 mL flask, with incubation at 37° C. in a shaking water bath. The next morning, the overnight culture was diluted into three 500 mL flasks containing 150 mL of fresh medium to an initial OD600 of about 0.08. Each flask was incubated in a shaking water bath, one each at 25° C., 30° C. and 37° C. Each large culture was allowed to acclimate at the test temperature for at least 0.5 h. […] Growth was followed by measuring OD600 for six hours after addition of the compounds.
# E. coli strain BW25113 = experiment: Survival of E. coli in MEK shock; type: cell-based, Escherichia coli; settings: for % Survival at 28° C. / % Survival at 37° C.: 30 min, average of duplicate experiments
# Method: Survival of MEK shock was tested at exposure temperatures of 28° C. or 37° C.
# [3] = Sample 2: induced cell free extract, PLP (+)
# [4] = Sample 4: induced cell free extract, PLP (−)
smiles,measurement,setting,value
"CC(CN)OP(=O)(O)O (racemic) [Aminopropanol O-phosphate, DL-1-amino-2-propanol O-phosphate]","OD670, 10 min",[1]; [3],1.229
same,"OD670, 30 min",[1]; [3],2.264
same,"OD670, 10 min",[1]; [4],0.855
same,"OD670, 30 min",[1]; [4],1.454
CCC(C)O (stereo not drawn) [2-butanol],Growth of L. plantarum PN0512 in the presence of 2-butanol,"[2]; 1.8 % w/v, 37° C.",+
same,Growth of L. plantarum PN0512 in the presence of 2-butanol,"[2]; 2.1 % w/v, 37° C.",+
same,Growth of L. plantarum PN0512 in the presence of 2-butanol,"[2]; 2.9 % w/v, 25° C.",+
same,Growth of L. plantarum PN0512 in the presence of 2-butanol,"[2]; 2.9 % w/v, 30° C.",+
same,Growth of L. plantarum PN0512 in the presence of 2-butanol,"[2]; 2.9 % w/v, 37° C.",+
same,Growth of L. plantarum PN0512 in the presence of 2-butanol,"[2]; 3.1 % w/v, 37° C.",+
same,Growth of L. plantarum PN0512 in the presence of 2-butanol,"[2]; 3.6 % w/v, 37° C.",+
same,Growth of L. plantarum PN0512 in the presence of 2-butanol,"[2]; 3.8 % w/v, 25° C.",+
same,Growth of L. plantarum PN0512 in the presence of 2-butanol,"[2]; 3.8 % w/v, 30° C.",+
same,Growth of L. plantarum PN0512 in the presence of 2-butanol,"[2]; 3.8 % w/v, 37° C.",+
same,Growth of L. plantarum PN0512 in the presence of 2-butanol,"[2]; 4.0 % w/v, 30° C.",+
same,Growth of L. plantarum PN0512 in the presence of 2-butanol,"[2]; 4.3 % w/v, 25° C.",+
same,Growth of L. plantarum PN0512 in the presence of 2-butanol,"[2]; 4.3 % w/v, 30° C.",+
same,Growth of L. plantarum PN0512 in the presence of 2-butanol,"[2]; 4.3 % w/v, 37° C.",+
same,Growth of L. plantarum PN0512 in the presence of 2-butanol,"[2]; 4.7 % w/v, 25° C.",+
same,Growth of L. plantarum PN0512 in the presence of 2-butanol,"[2]; 4.7 % w/v, 30° C.",+
same,Growth of L. plantarum PN0512 in the presence of 2-butanol,"[2]; 4.7 % w/v, 37° C.",−
same,Growth of L. plantarum PN0512 in the presence of 2-butanol,"[2]; 4.9 % w/v, 25° C.",+
same,Growth of L. plantarum PN0512 in the presence of 2-butanol,"[2]; 4.9 % w/v, 30° C.",−
same,Growth of L. plantarum PN0512 in the presence of 2-butanol,"[2]; 5.2 % w/v, 25° C.",+
same,Growth of L. plantarum PN0512 in the presence of 2-butanol,"[2]; 5.2 % w/v, 37° C.",−
same,Growth of L. plantarum PN0512 in the presence of 2-butanol,"[2]; 5.6 % w/v, 25° C.",−
same,Growth of L. plantarum PN0512 in the presence of 2-butanol,"[2]; 5.6 % w/v, 37° C.",−
same,Growth of L. plantarum PN0512 in the presence of 2-butanol,"[2]; 6.0 % w/v, 37° C.",−
same,Growth of L. plantarum PN0512 in the presence of 2-butanol,"[2]; 6.4 % w/v, 37° C.",−
same,Growth of L. plantarum PN0512 in the presence of 2-butanol,"[2]; 7.3 % w/v, 37° C.",−
same,Concentration in which growth was observed,[2]; 25° C.,5.2%
same,Concentration in which growth was not observed,[2]; 30° C.,4.9%
same,Concentration in which growth was observed,[2]; 30° C.,4.7%
same,Concentration in which growth was not observed,[2]; 37° C.,4.5%
same,Concentration in which growth was observed,[2]; 37° C.,4.3%
same,Growth of L. plantarum PN0512 in the presence of 2-butanol,"[2]; […] w/v, 30° C.",+
"CCC(C)=O [MEK, 2-butanone]",Concentration with full survival,E. coli strain BW25113; 28° C.,6 % w/v
same,Concentration with full survival,E. coli strain BW25113; 37° C.,4 % w/v
same,Concentration with no survival,E. coli strain BW25113; 37° C.,6 % w/v
same,% Survival at 28° C.,E. coli strain BW25113; MEK 4 % w/v,100%
same,% Survival at 37° C.,E. coli strain BW25113; MEK 4 % w/v,100%
same,% Survival at 28° C.,E. coli strain BW25113; MEK 6 % w/v,100%
same,% Survival at 37° C.,E. coli strain BW25113; MEK 6 % w/v,0%
same,% Survival at 28° C.,E. coli strain BW25113; MEK 8 % w/v,0.002%
same,% Survival at 37° C.,E. coli strain BW25113; MEK 8 % w/v,0%
